Where two headings read alike, the source gives them in different places.
Target: T1, F508delCFTR (Homo sapiens, UniProt P13569, DEL508-508)
T1 construct: expressed in transfected cells; host or cells: CFBE41o- human lung-derived epithelial cells (CFBE4lo-F508delCFTR-HRP), doxycycline-inducible
Test: Cell Surface Expression-Horse Radish Peroxidase (CSE-HRP) Assay;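 for Maximum % activity (with co-corrector): co-corrector and positive control are both the same reference corrector at 2 µM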;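 for Maximum % activity (without co-corrector): percent of the 2 µM on-plate positive control corrector response above DMSO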
Assay type: cell-based
Details: for Maximum % activity (with co-corrector) / Maximum % activity (without co-corrector) / Emax: maximum at any tested concentration, normalized to on-plate positive control; for Emax: read-out: Maximum % activity (without co-corrector)

[1] = test compound without co-corrector, read-out: EC50 (without co-corrector)
[2] = with co-corrector (2 μM of 3-[(2R,4R)-4-({[1-(2,2-difluoro-1,3-benzodioxol-5-yl)cyclopropyl]carbonyl}amino)-7-methoxy-3,4-dihydro-2H-chromen-2-yl]benzoic acid), read-out: EC50 (with co-corrector)
[3] = CSE-HRP, test compound without co-corrector, read-out: EC50 (without co-corrector)
[4] = CSE-HRP, with co-corrector (2 μM of 3-[(2R,4R)-4-({[1-(2,2-difluoro-1,3-benzodioxol-5-yl)cyclopropyl]carbonyl}amino)-7-methoxy-3,4-dihydro-2H-chromen-2-yl]benzoic acid), read-out: EC50 (with co-corrector)
[5] = CSE-HRP, with co-corrector (2 μM)
[6] = CSE-HRP, with co-corrector (2 μM), 2 µM

T1 sequence (P13569 with tags, fused parts or gaps DEL508-508): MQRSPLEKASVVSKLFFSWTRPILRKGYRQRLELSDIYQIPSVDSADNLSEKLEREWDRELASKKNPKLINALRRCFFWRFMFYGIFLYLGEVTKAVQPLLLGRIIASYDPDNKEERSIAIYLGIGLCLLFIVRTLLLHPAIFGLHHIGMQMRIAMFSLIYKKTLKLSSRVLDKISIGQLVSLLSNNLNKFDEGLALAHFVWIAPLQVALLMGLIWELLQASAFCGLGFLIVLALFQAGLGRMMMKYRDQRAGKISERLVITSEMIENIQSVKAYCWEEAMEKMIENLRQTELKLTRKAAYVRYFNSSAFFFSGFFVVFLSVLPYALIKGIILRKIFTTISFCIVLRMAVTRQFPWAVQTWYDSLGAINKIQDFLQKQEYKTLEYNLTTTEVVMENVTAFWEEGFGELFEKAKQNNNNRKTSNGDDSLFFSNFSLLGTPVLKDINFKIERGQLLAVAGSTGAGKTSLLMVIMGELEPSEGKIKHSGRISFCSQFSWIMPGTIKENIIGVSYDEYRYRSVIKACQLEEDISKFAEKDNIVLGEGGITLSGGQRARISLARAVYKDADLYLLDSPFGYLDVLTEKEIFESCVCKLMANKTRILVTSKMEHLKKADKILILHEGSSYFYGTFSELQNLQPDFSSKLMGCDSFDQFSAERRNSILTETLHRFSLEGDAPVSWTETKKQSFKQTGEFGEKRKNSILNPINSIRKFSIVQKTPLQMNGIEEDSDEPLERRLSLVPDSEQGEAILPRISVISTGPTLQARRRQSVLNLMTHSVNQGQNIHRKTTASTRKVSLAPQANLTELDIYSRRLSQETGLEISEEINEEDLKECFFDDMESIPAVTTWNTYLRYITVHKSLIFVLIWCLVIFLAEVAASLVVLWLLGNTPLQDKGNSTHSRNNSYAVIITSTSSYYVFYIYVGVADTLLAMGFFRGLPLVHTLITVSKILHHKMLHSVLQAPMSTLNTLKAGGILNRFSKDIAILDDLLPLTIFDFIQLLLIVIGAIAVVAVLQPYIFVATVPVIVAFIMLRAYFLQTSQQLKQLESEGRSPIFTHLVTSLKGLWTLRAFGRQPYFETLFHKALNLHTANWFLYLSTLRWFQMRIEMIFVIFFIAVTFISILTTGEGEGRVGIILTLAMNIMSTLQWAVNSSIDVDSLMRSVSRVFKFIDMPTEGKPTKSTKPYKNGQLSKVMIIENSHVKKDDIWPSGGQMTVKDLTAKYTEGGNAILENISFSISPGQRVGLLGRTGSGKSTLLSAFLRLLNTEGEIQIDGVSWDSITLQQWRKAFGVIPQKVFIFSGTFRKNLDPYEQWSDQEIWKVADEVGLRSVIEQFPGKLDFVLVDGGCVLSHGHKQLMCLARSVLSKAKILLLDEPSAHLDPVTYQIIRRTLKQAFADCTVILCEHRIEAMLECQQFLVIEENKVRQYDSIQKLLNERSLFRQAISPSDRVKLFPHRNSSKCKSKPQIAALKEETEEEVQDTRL

| Compound | EC50 [1] [nM] | EC50 [2] [nM] | Maximum % activity (with co-corrector) (with co-corrector (2 μM)) | Emax (without co-corrector) [%] | EC50 [3] [nM] | EC50 [4] [nM] | Maximum % activity (with co-corrector) [5] | further results |
| --- | --- | --- | --- | --- | --- | --- | --- | --- |
| COc1ccc(C2(C(F)(F)F)CC2)cc1CN[C@H]1[C@H](C(C)(C)C)[C@@H](C(=O)O)N(C(=O)C2Cc3ccccc3O2)[C@H]1c1cccnc1N(C)C (single isomer, unassigned) [Example 37, (2S,3S,4S,5S)-3-tert-butyl-1-[(2R*)-2,3-dihydro-1-benzofuran-2-carbonyl]-5-[2-(dimethylamino)pyridin-3-yl]-4-[({2-methoxy-5-[1-(trifluoromethyl)cyclopropyl]phenyl}methyl)amino]pyrrolidine-2-carboxylic acid] | < 1000 | < 1000 |  |  |  |  |  | Maximum % activity (with co-corrector) (with co-corrector (2 μM), 2 µM): ++ (≥150 and <350); Maximum % activity (without co-corrector) (without co-corrector): + (<100) |
| COc1ccc(C(C)(C)C)cc1CN[C@H]1[C@H](C(C)(C)C)[C@@H](C(=O)O)N(C(=O)C2CCCC(F)(F)C2)[C@H]1c1cccnc1N(C)C (single isomer, unassigned) [Example 42, (2S,3S,4S,5S)-3-tert-butyl-4-{[(5-tert-butyl-2-methoxyphenyl)methyl]amino}-1-[(1R*)-3,3-difluorocyclohexane-1-carbonyl]-5-[2-(dimethylamino)pyridin-3-yl]pyrrolidine-2-carboxylic acid] | < 1000 | < 1000 | +++ (≥350) | > 200 |  |  |  |  |
| COc1ccc(C(C)(C)C)cc1CN[C@H]1[C@H](C(C)(C)C)[C@@H](C(=O)O)N(C(=O)C2CCc3ccccc3O2)[C@H]1c1cccnc1N(C)C (single isomer, unassigned) [Example 43, (2S,3S,4S,5S)-3-tert-butyl-4-{[(5-tert-butyl-2-methoxyphenyl)methyl]amino}-1-[(2S*)-3,4-dihydro-2H-1-benzopyran-2-carbonyl]-5-[2-(dimethylamino)pyridin-3-yl]pyrrolidine-2-carboxylic acid] | 1000 to 10000 | < 1000 | +++ (≥350) | 100 to 200 |  |  |  |  |
| COc1ccc(C(C)(C)C)cc1CN[C@H]1[C@H](C(C)(C)C)[C@@H](C(=O)O)N(C(=O)C2CCCC(F)(F)C2)[C@H]1c1cccnc1N(C)C (single isomer, unassigned) [Example 44, (2S,3S,4S,5S)-3-tert-butyl-4-{[(5-tert-butyl-2-methoxyphenyl)methyl]amino}-1-[(1S*)-3,3-difluorocyclohexane-1-carbonyl]-5-[2-(dimethylamino)pyridin-3-yl]pyrrolidine-2-carboxylic acid] | 1000 to 10000 | < 1000 | +++ (≥350) |  |  |  |  | Maximum % activity (without co-corrector) (without co-corrector): +++ (≥200) |
| COc1ccc(C(C)(C)C)cc1CN[C@H]1[C@H](C(C)(C)C)[C@@H](C(=O)O)N(C(=O)C2CCc3ccccc3O2)[C@H]1c1ccccc1 (single isomer, unassigned) [Example I-83] | 1000 to 10000 | 1000 to 10000 | +++ (≥350) | 100 to 200 |  |  |  |  |
| COc1ccc(C(C)(C)C)cc1CN[C@H]1[C@H](C(C)(C)C)[C@@H](C(=O)O)N(C(=O)C(OC)C2CC2)[C@H]1c1ccccc1 (single isomer, unassigned) [Example I-95] | 1000 to 10000 | 1000 to 10000 | +++ (≥350) | > 200 |  |  |  |  |
| COc1ccc(C(C)(C)C)cc1CN[C@H]1[C@H](C(C)(C)C)[C@@H](C(=O)O)N(C(=O)C(OC)C2CC2)[C@H]1c1ccccc1 (single isomer, unassigned) [Example I-96] | 1000 to 10000 |  | +++ (≥350) |  |  |  |  |  |
| COc1ccc(C(C)(C)C)cc1CN[C@H]1[C@H](C(C)(C)C)[C@@H](C(=O)O)N(C(=O)C2Cc3ccccc3O2)[C@H]1c1cccnc1OC (single isomer, unassigned) [Example I-165] | < 1000 | < 1000 | +++ (≥350) | 100 to 200 |  |  |  |  |
| COc1ccc(C(C)(C)C)cc1CN[C@H]1[C@H](C(C)(C)C)[C@@H](C(=O)O)N(C(=O)C2Cc3ccccc3O2)[C@H]1c1cccnc1OC (single isomer, unassigned) [Example I-166] | 1000 to 10000 | < 1000 | +++ (≥350) |  |  |  |  | Maximum % activity (without co-corrector) (without co-corrector): + (<100) |
| COc1ccc(C2(C(F)(F)F)CC2)cc1CN[C@H]1[C@H](C(C)(C)C)[C@@H](C(=O)O)N(C(=O)C2Cc3ccccc3O2)[C@H]1c1cccnc1N(C)C (single isomer, unassigned) [Example I-175] | < 1000 | < 1000 |  | < 100 |  |  |  | Maximum % activity (with co-corrector) (with co-corrector (2 μM), 2 µM): +++ (≥350) |
| COc1nc(C(C)(C)C)ccc1CN[C@H]1[C@H](C(C)(C)C)[C@@H](C(=O)O)N(C(=O)C2Cc3ccccc3O2)[C@H]1c1ccccc1 (single isomer, unassigned) [Example I-181] | < 1000 | < 1000 | +++ (≥350) | < 100 |  |  |  |  |
| COc1ccc(C(C)(C)C)cc1CN[C@H]1[C@H](C(C)(C)C)[C@@H](C(=O)O)N(C(=O)C2CCCN(C)C2=O)[C@H]1c1ccccc1 (single isomer, unassigned) [Example I-191] | 1000 to 10000 | 1000 to 10000 | +++ (≥350) | > 200 |  |  |  |  |
| COc1cc(C(F)(F)F)ccc1CN[C@@H]1[C@@H](C(C)(C)C)[C@H](C(=O)O)N(C(=O)C(C)Oc2ccccc2)[C@@H]1c1ccccc1 (single isomer, unassigned) [II-58] |  |  |  |  | 1000 to 10000 | 1000 to 10000 | ++ (≥150 and <350) | Emax (CSE-HRP, without co-corrector): < 100% |
| COc1cc(C(F)(F)F)ccc1CN[C@@H]1[C@@H](C(C)(C)C)[C@H](C(=O)O)N(C(=O)C(C)Oc2ccccc2)[C@@H]1c1ccccc1 (single isomer, unassigned) [II-67] |  |  |  |  | 1000 to 10000 |  | ++ (≥150 and <350) |  |
| COc1cc(C(F)(F)F)ccc1CN[C@@H]1[C@@H](C(C)(C)C)[C@H](C(=O)O)N(C(=O)C(C)c2ccccc2)[C@@H]1c1ccccc1 (single isomer, unassigned) [II-80] |  |  |  |  | 1000 to 10000 | 1000 to 10000 | +++ (≥350) | Emax (CSE-HRP, without co-corrector): 100 to 200% |
| COc1ccc(C(C)(C)C)cc1CN[C@H]1[C@H](C(C)(C)C)[C@@H](C(=O)O)N(C(=O)C2CCc3ccccc3O2)[C@H]1c1ccccc1 (single isomer, unassigned) [II-164] |  |  |  |  | < 1000 | < 1000 | +++ (≥350) | Emax (CSE-HRP, without co-corrector): > 200% |
| COc1ccc(C(C)(C)C)cc1CN[C@H]1[C@H](C(C)(C)C)[C@@H](C(=O)O)N(C(=O)C(C)n2cc(Cl)c(C)n2)[C@H]1c1ccccc1 (single isomer, unassigned) [II-237] |  |  |  |  | 1000 to 10000 | 1000 to 10000 | +++ (≥350) | Maximum % activity (without co-corrector) (CSE-HRP, without co-corrector): + (<100) |
| COc1ccc(C(F)(F)F)cc1CN[C@H]1[C@H](C(C)(C)C)[C@@H](C(=O)O)N(C(=O)C2Cc3ccccc3O2)[C@H]1c1ccccc1 (single isomer, unassigned) [II-265] |  |  |  |  | 1000 to 10000 | 1000 to 10000 |  | Maximum % activity (with co-corrector) [6]: ++ (≥150 and <350); Emax (CSE-HRP, without co-corrector): < 100% |
| COc1ccc(C(F)(F)F)cc1CN[C@H]1[C@H](C(C)(C)C)[C@@H](C(=O)O)N(C(=O)C2Cc3ccccc3O2)[C@H]1c1ccccc1 (single isomer, unassigned) [II-266] |  |  |  |  | 1000 to 10000 | < 1000 |  | Maximum % activity (with co-corrector) [6]: +++ (≥350); Maximum % activity (without co-corrector) (CSE-HRP, without co-corrector): ++ (≥100 and <200) |
| COc1ccc(C(C)(C)C)cc1CN[C@H]1[C@H](C(C)(C)C)[C@@H](C(=O)O)N(C(=O)C(OC)c2cccc(Cl)c2)[C@H]1c1ccccc1 (single isomer, unassigned) [II-270] |  |  |  |  | < 1000 | < 1000 | +++ (≥350) | Emax (CSE-HRP, without co-corrector): > 200% |
| COc1ccc(C(C)(C)C)cc1CN[C@H]1[C@H](C(C)(C)C)[C@@H](C(=O)O)N(C(=O)C(OC)c2cccc(Cl)c2)[C@H]1c1ccccc1 (single isomer, unassigned) [II-271] |  |  |  |  | 1000 to 10000 | < 1000 | +++ (≥350) | Maximum % activity (without co-corrector) (CSE-HRP, without co-corrector): +++ (≥200) |
| COc1ccc(C(C)(C)C)cc1CN[C@H]1[C@H](C(C)(C)C)[C@@H](C(=O)O)N(C(=O)C2Cc3ccccc3O2)[C@H]1c1ccccc1 (single isomer, unassigned) [II-272] |  |  |  |  | 1000 to 10000 | 1000 to 10000 | +++ (≥350) | Emax (CSE-HRP, without co-corrector): 100 to 200% |
| COc1ccc(C(C)(C)C)cc1CN[C@H]1[C@H](C(C)(C)C)[C@@H](C(=O)O)N(C(=O)C2Cc3ccccc3O2)[C@H]1c1cccnc1N(C)C (single isomer, unassigned) [II-421] | 1000 to 10000 | 1000 to 10000 |  |  |  |  |  | Emax (test compound without co-corrector): < 100%; Maximum % activity (with co-corrector) (with co-corrector (2 μM of 3-[(2R,4R)-4-({[1-(2,2-difluoro-1,3-benzodioxol-5-yl)cyclopropyl]carbonyl}amino)-7-methoxy-3,4-dihydro-2H-chromen-2-yl]benzoic acid)): ++ (≥150 and <350) |

— US20180099931A1 (AbbVie S.à.r.l., priority 2016, published 2018)
